In ChEMBL document CHEMBL2440042, “Anti-proliferative activity of hydnocarpin, a natural lignan, is associated with the suppression of Wnt/β-catenin signaling pathway in colon cancer cells” (Bioorg Med Chem Lett, 2013):

Experiments:
[1] = tested on: SW480; test: Inhibition of Wnt/beta-catenin signaling pathway in human SW480 cells assessed as increase in phosphorylation of beta-catenin at Ser45 at 10 uM after 12 hrs by Western blotting analysis relative to vehicle-treated control
[2] = tested on: SW480; test: Inhibition of Wnt/beta-catenin signaling pathway in human SW480 cells assessed as Axin2 protein expression at 20 uM after 12 hrs by Western blotting analysis relative to vehicle-treated control

COc1cc([C@H]2Oc3ccc(-c4cc(=O)c5c(O)cc(O)cc5o4)cc3O[C@@H]2CO)ccc1O (relative stereo)
fold change (FC) [1]: 3.6
fold change (FC) [2]: 6.5
